Measurements taken from patent US20100004333A1, “COMPOSITIONS AND METHODS FOR TREATING CARDIOVASCULAR DISORDERS” (priority 2004, published 2010).

How the values were obtained:
[1] = Oxidation of probucol or DTBP in hexane by 1e- and 2e-oxidants (HPLC, ion exchange chromatography); type: physicochemical; settings: for Depletion: compound 1 mM in hexane, 60 min, 37° C.; for SO4^2− in aqueous phase of reaction mixture: oxidized with 5-mol equivalent HOCl, antioxidant-free mixture 58±5 nmol
Protocol: All other reagents were of the highest quality available. Buffers were routinely filtered, argon-flushed and stored at 4° C. prior to use. Solutions of HOCl were prepared freshly before use by diluting reagent HOCl (Aldrich) into phosphate buffer (250 mM, pH 7.0) and standardizing with ε235 nm˜100 M^−1cm^−1 (hypochlorous acid) and ε290 nm˜300 M^−1cm^−1 (hypochlorite), as described in Journal of Physical Chemistry 1966, 70:3798-3805. Animals: New Zealand White rabbits (2.5-3 kg) were obtained from a commercial farm (Wauchope, NSW Australia) and housed individually for the entire study period. […] Feed and water were provided ad libitum for a period of 4 weeks judged to be sufficient time for circulating drug levels to reach a maximum (data not shown). […] The local ethics committee approved the study. Vascular reactivity: Perfused rabbit aortas were harvested and vascular reactivity studies performed as described in Circulation 2003, 107:2031-2036. Briefly, within 2 h of isolation, ring segments ˜5 mm in length were mounted in a myobath system (World Precision Instruments, Sarasota, Fla.) containing 20 mL of Krebs solution aerated at 37° C. with 5% CO2(g), and the dilatory response of half maximally norepinephrine pre-constricted rings to incremental doses of ACh (10^−9-10^−5 mol/L) determined. Where indicated, reagent HOCl (final concentration 400 μM) was added to the Krebs solution and the rings incubated for 5 min prior to thorough washing, pre-constriction and assessment of vessel relaxation. In some studies rings were incubated with probucol or DTBP for 10 min, washed thoroughly and then exposed to HOCl prior to assessing endothelium-dependent relaxation. A maximum of three consecutive sequences of constriction/relaxation were performed for each ring. Preparation of Aortic Homogenates: Aortic Rings Used in the Vascular Function Studies were removed and immediately cut into small pieces, frozen in liquid nitrogen, and then pulverized and homogenized as described. An aliquot (50 μL) of homogenate was removed for protein determination (BCA assay, Sigma) and the remainder extracted into methanol/hexane (5:1, v/v), the resulting hexane fraction dried and the residue suspended in isopropanol for analysis of probucol and its oxidation products. For cGMP determinations, aortic segments were treated with vehicle (control) or HOCl (400 μM) before addition of 1 μM ACh in the presence of 200 μM 3-isobutyl-1-methylxanthine and measurement of cGMP in the homogenate using a kit (Cayman Chemical, Ann Arbor, Mich.). Probucol oxidation studies: Probucol is a highly lipophilic compound (partition coefficient between octanol and water=[…]) that readily distributes into lipoproteins. To mimic the biological situation, oxidation reactions were therefore performed with probucol (or DTBP) dissolved in hexane (2 mL) to which aliquots of HOCl were added to give the final concentrations indicated. The heterogeneous mixtures were shaken vigorously at 37° C. for 60 min, then placed on ice after adding 1 mL water, the hexane phase removed, dried under vacuum and resuspended in isopropanol (200 μL) for HPLC analyses (see below). The aqueous phase was analyzed for the content of sulfate anion (SO4^2−) by ion exchange chromatography (see below). Analytical analyses: Probucol, DTBP, BP and DPQ were analyzed by gradient reversed-phase HPLC and quantified by peak area comparison with authentic standards. Under the conditions used, BP, DTBP, probucol and DPQ eluted at 12.5, 19.2, 20.8 and 28.4 min, respectively. Other oxidation products resolved by this HPLC system were also quantified by peak area comparison, using analytically pure samples obtained from semi-preparative (LC-18, 20 mm×25 cm, 5 μm) fractionation of the reaction mixture. Isolated samples were dried under vacuum, re-dissolved to a known concentration and assessed for purity by analytical HPLC (LC-18, 4.6 mm×25 cm, 5 μm) in combination with mass spectrometry (see below). […]

[2] = Total aortic drug concentration in apoE−/− mice, 5 months; type: in vivo
From the text: ApoE−/− mouse model. Four groups of male apoE−/− mice (8-10 weeks, Animal Resources Centre, Perth, Australia) were fed a high fat diet based on Harlan Teklad diet TD88137±1% (wt/wt) probucol (96% purity, a gift from AstraZeneca, Sweden), 0.02% DTBP, or 0.02% BP (Polysciences, Warrington, Pa.) for 5 months. Tissue harvesting and analyses were done as described in Examples 1 and 3, using 15 and 10 mice of each group for biochemical and histological analyses, respectively. Histology and immunohistochemistry. Aortic lesion assessment was carried out at four sites (sinus, arch, thoracic and abdominal aorta) as described in Example 1. Immediately adjacent sections were employed for immunohistochemistry, using Mac-3 (macrophages, dilution 1:200, DAKO), PCNA (cell proliferation, dilution 1:500, DAKO) and anti-rat HO-1 monoclonal antibody (dilution 1:50, Santa Cruz) with avidin-biotin-horseradish peroxidase for signal detection (Vectorstain Elite ABC Kit, Vector Laboratories). Apoptosis was assessed using the TUNEL assay kit (Roche) according to the manufacture's instructions. Digital images were taken for quantitative morphometric analysis. Mac-3^+ areas were determined using Adobe Photoshop V6.0 by tracing. Total cell profiles, TUNEL^+ and PCNA^+ cells were counted manually at high magnification (40× objective). A single operator using coded samples performed all analyses blinded. Heme oxygenase. Heme oxygenase activity was determined in microsomes prepared from homogenized aortic tissue and assessed by HPLC as described in Circulation 2004, 110: 1855-1860. Statistics. All data are expressed as mean±SEM. One-way ANOVA and the student-Newman-Keul's test were used to evaluate differences between groups, with P<0.05 considered significant.

Row | Structure (SMILES) | Depletion ([1]; oxidant AAPH 5 mM) [%] | Depletion ([1]; oxidant HOCl 5 mM, air) [%] | SO4^2− in aqueous phase of reaction mixture [1] [nmol] | Total aortic drug concentration ([2]; apoE−/− mice, high fat diet 5 months, 1% probucol, 0.02% DTBP, 0.02% BP) [nmol/mg protein] | Total aortic drug concentration ([2]; male, apoE−/−, mouse, in vivo, 5 months) [nmol/mg protein] | Bioavailability relative to probucol ([2]; mouse, in vivo)
1 | CC(C)(Sc1cc(C(C)(C)C)c(O)c(C(C)(C)C)c1)Sc1cc(C(C)(C)C)c(O)c(C(C)(C)C)c1 [probucol] | 0 ± 0 | > 90 | 139 ± 14 | 21.8±8.4 |  | 
2 | CC(C)(C)c1cc(SSc2cc(C(C)(C)C)c(O)c(C(C)(C)C)c2)cc(C(C)(C)C)c1O [DTBP, 4,4′-dithiobis(2,6-di-tert-butyl-phenol)] | 0 ± 0 | 96 ± 3 | 204 ± 43 |  | 7.1±1.4 | clearly superior bioavailability compared to probucol
